# Earlier results in patent US9637731B2, “Heavy metal stabilization and methane inhibition during induced or naturally occurring reducing conditions in contaminated media” (Innovative Environmental Technologies, Inc., priority 2013, dated 2017).
# Assays:
# [1] = system: F420-dependent NADP oxidoreductase enzyme; details: 3D protein model
# [2] = system: pure methanogenic bacteria
SMILES,affinity for the model protein compared to the natural ligand F420 [1],growth and activity of pure methanogenic bacteria [2],methane formation (Methanobrevibacter),concentration that completely inhibited growth (Methanobrevibacter; per ml of culture medium) [nmol/mL],"IC50 (Methanobrevibacter; per ml of culture medium, read-out: concentration resulting in 50% inhibition of growth) [µM]",populations of the non-methanogens (non-methanogens),effect on cellulolytic bacteria (cellulolytic bacteria)
CC[C@H](C)C(=O)O[C@H]1CCC=C2C=C[C@H](C)[C@H](CC[C@@H]3C[C@@H](O)CC(=O)O3)[C@H]21 [compactin],more affinity,,,,,,
"CC[C@H](C)C(=O)O[C@H]1C[C@@H](C)C=C2C=C[C@H](C)[C@H](CC[C@@H]3C[C@@H](O)CC(=O)O3)[C@H]21 [lovastatin, Lovastatin]",more affinity,significantly reduced,significantly inhibited,10,4,not affected,without any negative effect
